Measured values taken from BindingDB's records for doi:10.7270/Q29885F3 (Nmmlsc, 2009).

Biological target: Ras-related protein Rab-7a (Canis lupus familiaris, UniProt P18067)
Test: Rab7 GTP binding inhibitors, analog potency, SAR follow-up, biochemical, oxadiazole analogs, multiplex bead flow cytometry (AID 2031)
Settings: inactive by the depositor's call

Chain of Ras-related protein Rab-7a (P18067 whole entry): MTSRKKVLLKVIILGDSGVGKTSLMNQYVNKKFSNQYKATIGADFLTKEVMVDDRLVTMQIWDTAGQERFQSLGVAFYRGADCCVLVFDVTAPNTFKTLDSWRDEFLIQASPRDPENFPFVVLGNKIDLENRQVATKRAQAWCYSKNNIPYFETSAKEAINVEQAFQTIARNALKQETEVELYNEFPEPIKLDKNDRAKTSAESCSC

Ki [nM]	Structure (SMILES)
100	Cc1ccc(C)c(N2CCN(C(=O)CCc3nc(-c4ccc(Br)cc4)no3)CC2)c1 [UNM-0000306072]
100	COc1ccc(-c2noc(CCC(=O)N3CCN(c4cccc(C)c4C)CC3)n2)cc1 [1-[4-(2,3-dimethylphenyl)-1-piperazinyl]-3-[3-(4-methoxyphenyl)-1,2,4-oxadiazol-5-yl]-1-propanone]
